From ChEMBL document CHEMBL1201862, “PubChem BioAssay data set” (2004)
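Briefly, cells in 96-well plates were exposed to five compound concentrations for 48 h, and endpoints were estimated by linear interpolation. The concentration for 50% growth inhibition is given as GI50.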 The source made the active and inactive calls. Cut-off read from the data, not from the text of the source: active = GI50 up to about 1.1 µM and inactive = higher.

How the values were obtained:
Assay in all cases: DTP human tumour cell line panel, 48 h
[1] = test system: IGROV-1
[2] = test system: Malme-3M
[3] = test system: HCT-116
[4] = test system: SW-620
[5] = test system: M14
[6] = test system: HT-29
[7] = test system: OVCAR-8
[8] = test system: HOP-92
[9] = test system: MDA-MB-231
[10] = test system: NCI-H460
[11] = test system: Hs-578T
[12] = test system: NCI-H226
[13] = test system: HCT-15
[14] = test system: U-251
[15] = test system: SF-295
[16] = test system: MDA-MB-435
[17] = test system: A498
[18] = test system: PC-3
[19] = test system: KM12
[20] = test system: CCRF-CEM

CC(O)(Cc1ccccc1C#N)Cc1ccccc1C#N
GI50 [1]: > 100 µM (inactive)
GI50 [2]: > 100 µM (inactive)
GI50 [3]: > 100 µM (inactive)
GI50 [4]: > 100 µM (inactive)
GI50 [5]: > 100 µM (inactive)
GI50 [6]: > 100 µM (inactive)
GI50 [7]: 54.7 µM (inactive)
GI50 [8]: 95.5 µM (inactive)
GI50 [9]: > 100 µM (inactive)
GI50 [10]: 73.6 µM (inactive)
GI50 [11]: > 100 µM (inactive)
GI50 [12]: 50 µM (inactive)
GI50 [13]: 79.3 µM
GI50 [14]: > 100 µM (inactive)
GI50 [15]: 74 µM (inactive)
GI50 [16]: > 100 µM (inactive)
GI50 [17]: > 100 µM (inactive)
GI50 [18]: 71.3 µM (inactive)
GI50 [19]: 51.5 µM (inactive)

Cc1ccc(C(=O)Oc2ccccc2)cc1/N=N/N(C)C
GI50 [1]: > 100 µM (inactive)
GI50 [2]: > 100 µM (inactive)
GI50 [3]: > 100 µM (inactive)
GI50 [4]: > 100 µM (inactive)
GI50 [5]: > 100 µM (inactive)
GI50 [6]: 37.1 µM (inactive)
GI50 [20]: 91.8 µM (inactive)
GI50 [7]: > 100 µM (inactive)
GI50 [8]: > 100 µM (inactive)
GI50 [9]: > 100 µM (inactive)
GI50 [10]: > 100 µM (inactive)
GI50 [11]: > 100 µM (inactive)
GI50 [12]: > 100 µM (inactive)
GI50 [13]: > 70.3 µM
GI50 [14]: > 100 µM (inactive)
GI50 [15]: > 69.3 µM (inactive)
GI50 [16]: > 100 µM (inactive)
GI50 [18]: > 100 µM (inactive)
GI50 [19]: 53.3 µM (inactive)

CC(=O)OCc1ccc2c(c1)C(O)NC(=O)O2 (stereo not drawn)
GI50 [1]: > 100 µM (inactive)
GI50 [2]: 42.4 µM (inactive)
GI50 [3]: 52.8 µM (inactive)
GI50 [4]: 72.8 µM (inactive)
GI50 [5]: > 100 µM (inactive)
GI50 [6]: > 100 µM (inactive)
GI50 [20]: 12.4 µM (inactive)
GI50 [7]: > 100 µM (inactive)
GI50 [8]: > 100 µM (inactive)
GI50 [9]: > 100 µM (inactive)
GI50 [10]: > 100 µM (inactive)
GI50 [11]: 18.7 µM (inactive)
GI50 [12]: 96.6 µM (inactive)
GI50 [13]: 44.3 µM
GI50 [14]: 58.6 µM (inactive)
GI50 [15]: > 100 µM (inactive)
GI50 [16]: > 100 µM (inactive)
GI50 [18]: > 100 µM (inactive)
GI50 [19]: 88.5 µM (inactive)

O=c1oc2ccc(Cl)cc2cc1-c1cn2ccccc2n1
GI50 [1]: 29.2 µM (inactive)
GI50 [2]: 3.46 µM (inactive)
GI50 [3]: 6.64 µM (inactive)
GI50 [4]: 85.5 µM (inactive)
GI50 [5]: > 66.7 µM (inactive)
GI50 [6]: 17.7 µM (inactive)
GI50 [20]: > 81.3 µM (inactive)
GI50 [7]: 9.62 µM (inactive)
GI50 [8]: 21.9 µM (inactive)
GI50 [9]: 8.97 µM (inactive)
GI50 [10]: 14.6 µM (inactive)
GI50 [11]: 7.83 µM (inactive)
GI50 [12]: 20.9 µM (inactive)
GI50 [13]: > 100 µM
GI50 [14]: 3.93 µM (inactive)
GI50 [15]: 8.38 µM (inactive)
GI50 [16]: > 100 µM (inactive)
GI50 [18]: > 72.9 µM (inactive)
GI50 [19]: > 100 µM (inactive)

Cc1ccc(CC2(OCCN(C)C)CCC(C(C)(C)C)CC2)cc1 (stereo not drawn)
GI50 [1]: 8.99 µM (inactive)
GI50 [2]: 1.99 µM (inactive)
GI50 [3]: 2.26 µM (inactive)
GI50 [4]: 2.45 µM (inactive)
GI50 [5]: 1.87 µM (inactive)
GI50 [6]: 2.23 µM (inactive)
GI50 [20]: 2.65 µM (inactive)
GI50 [7]: 9.4 µM (inactive)
GI50 [9]: 5.56 µM (inactive)
GI50 [10]: 1.79 µM (inactive)
GI50 [11]: 8.04 µM (inactive)
GI50 [12]: 5.28 µM (inactive)
GI50 [13]: 4.63 µM
GI50 [14]: 2.41 µM (inactive)
GI50 [15]: 4.54 µM (inactive)
GI50 [16]: 2.4 µM (inactive)
GI50 [17]: 11.4 µM (inactive)
GI50 [18]: 3.89 µM (inactive)
GI50 [19]: 2.86 µM (inactive)

CC(C)(C)OC(=O)c1cnc(Cl)cn1
GI50 [1]: 23.4 µM (inactive)
GI50 [2]: 51.6 µM (inactive)
GI50 [3]: 33.6 µM (inactive)
GI50 [4]: 55.8 µM (inactive)
GI50 [5]: 29.4 µM (inactive)
GI50 [6]: 46.9 µM (inactive)
GI50 [20]: 18.7 µM (inactive)
GI50 [7]: 38.2 µM (inactive)
GI50 [8]: 3.12 µM (inactive)
GI50 [9]: 46.1 µM (inactive)
GI50 [10]: 49.7 µM (inactive)
GI50 [11]: 35.2 µM (inactive)
GI50 [12]: 34.9 µM (inactive)
GI50 [13]: 11.7 µM
GI50 [14]: 33.8 µM (inactive)
GI50 [15]: > 100 µM (inactive)
GI50 [16]: 56.6 µM (inactive)
GI50 [18]: 64.7 µM (inactive)
GI50 [19]: 22.3 µM (inactive)

O=c1c(C(c2cc(OCc3ccccc3)cc(OCc3ccccc3)c2)c2c(O)oc3ccccc3c2=O)c(O)oc2ccccc12
GI50 [1]: 14.1 µM (inactive)
GI50 [3]: 3.39 µM (inactive)
GI50 [4]: 4.58 µM (inactive)
GI50 [5]: 7.13 µM (inactive)
GI50 [6]: 4.15 µM (inactive)
GI50 [20]: 2.42 µM (inactive)
GI50 [7]: 4.18 µM (inactive)
GI50 [8]: 2.69 µM (inactive)
GI50 [9]: 4.57 µM (inactive)
GI50 [10]: 3.45 µM (inactive)
GI50 [11]: 5.96 µM (inactive)
GI50 [12]: 9.64 µM (inactive)
GI50 [13]: 3.17 µM
GI50 [14]: 4.78 µM (inactive)
GI50 [15]: 5.42 µM (inactive)
GI50 [16]: 4.83 µM (inactive)
GI50 [17]: 12 µM (inactive)
GI50 [18]: 4 µM (inactive)
GI50 [19]: 4.19 µM (inactive)
